Data from patent publication US20260092068A1, “PHYSICAL FORMS OF AN INHIBITOR OF PRC2” (ORIC Pharmaceuticals, Inc., priority 2022, published 2026).

Experiment: Stability of Form 2 of Compound 1 under storage conditions (impurities by UPLC, solid form by XRPD)
Format: physicochemical
Conditions: for Storage stability: up to 6 months
Protocol: To measure stability of the Form 2 of Compound 1 under storage conditions, samples of Form 2 of Compound 1 were placed in double low-density polyethylene bags with desiccant between the bags and each was placed into a high-density polyethylene drum. One drum was stored at a temperature of 25° C. and 60% relative humidity (RH), and a second drum was stored at a temperature of 40° C. and 75% RH. Samples of the material were taken from both drums at 1 month, 3 months, and 6 months and the samples were analyzed for the presence of impurities. The amount of the Form 2 of Compound 1, and the amount of any impurities, in each sample was measured by ultra-performance liquid chromatography (UPLC) using the test conditions set and solvent gradients forth in Table 5 and Table 6. The samples were tested to determine the amount remaining of Form 2 at each time point, and the measurements were conducted by x-ray powder diffraction (XRPD) according to USP <941>.

[1] = 25° C. and 60% RH, Initial (Time = zero)
[2] = 40° C. and at 75% RH, Initial (Time = zero)

## Cc1cc(CN(C)C)ccc1-c1cnc(NCc2c(F)ccc3c2CCO3)n2cc(C#N)nc12 [Form 2 of Compound 1, 8-(4-((dimethylamino)methyl)-2-methylphenyl)-5-(((5-fluoro-2,3-dihydrobenzofuran-4-yl)methyl)amino)imidazo[1,2-c]pyrimidine-2-carbonitrile]
[1]
  Total impurities present (% area measured by UPLC): 1.4 % area
  XRPD: Crystalline
25° C. and 60% RH, Time = 1 month
  Total impurities present (% area measured by UPLC): 1.4 % area
25° C. and 60% RH, Time = 1 month, consistent with T = 0
  XRPD: Crystalline
25° C. and 60% RH, Time = 3 months
  Total impurities present (% area measured by UPLC): 1.4 % area
25° C. and 60% RH, Time = 3 months, consistent with T = 0
  XRPD: Crystalline
25° C. and 60% RH, Time = 6 months
  Total impurities present (% area measured by UPLC): 1.4 % area
25° C. and 60% RH, Time = 6 months, consistent with T = 0
  XRPD: Crystalline
[2]
  Total impurities present (% area measured by UPLC): 1.4 % area
  XRPD: Crystalline
40° C. and at 75% RH, Time = 1 month
  Total impurities present (% area measured by UPLC): 1.4 % area
40° C. and at 75% RH, Time = 1 month, consistent with T = 0
  XRPD: Crystalline
40° C. and at 75% RH, Time = 3 months
  Total impurities present (% area measured by UPLC): 1.4 % area
40° C. and at 75% RH, Time = 3 months, consistent with T = 0
  XRPD: Crystalline
40° C. and at 75% RH, Time = 6 months
  Total impurities present (% area measured by UPLC): 1.4 % area
40° C. and at 75% RH, Time = 6 months, consistent with T = 0
  XRPD: Crystalline
Stored at 25° C. and 60% RH
  Storage stability: stable
Stored at 40° C. and at 75% RH
  Storage stability: stable
